Square brackets hold non-standard residues; d marks the D form. Peptide text beside a SMILES is read from it.
Assays:
[1] = test system: BNX mice transplanted with skin from psoriatic human donors; assay: Psoriasis transplant model (human psoriatic skin on BNX mice); type: in vivo; conditions: FIG. 25B; KdPT i.p. 10 μg/d, three weeks
Experimental: Immunodeficient mice (BNX mice) were transplanted with skin from psoriatic human donors. Animals with viable transplant were injected with PBMCs from the same donor, resulting in appearance of a psoriatic phenotype within the transplant. Animals were treated as follows:
Group 1: Betamethasone, topically, 2× daily, Group 2: Vehicle, i.p. 100 μL/d, Group 3: KdPT i.p. 1 μg/d, Group 4: KdPT i.p. 10 μg/d, all treatments were kept up for three weeks.
As shown in FIGS. 25A and 25B, immunodeficient mice (BNX mice) were transplanted with skin from psoriatic donors. Animals with viable transplant were injected with PBMCs from the same donor, resulting in appearance of a psoriatic phenotype within the transplant. Animals were treated as follows:
Group 1: Vehicle, i.p. 100 μL/d, Group 2: Betamethasone, topically, 2× daily, Group 3: KdPT i.p. 10 μg/d, all treatments were kept up for three weeks.

[2] = test system: bone marrow dendritic cells (BMDC); assay: CHS and tolerance after injection of BMDC treated in vitro with hapten and αMSH or KP; type: in vivo, mice; conditions: for immune response at second challenge after resensitization (tolerance): recipients of hapten- and peptide-treated BMDC; for CHS reaction at first challenge in recipients of hapten- and peptide-treated BMDC: αMSH 2×10^−11 M or KP 2×10^−6M in vitro, cells i.v.
Experimental: Bone marrow dendritic cells (BMDC) were isolated from the femoral bones of mice and treated with IL-4 and GMCSF for 6 or 9 days. On day 6 or 9, the cells were treated with αMSH (2×10^−11 M) or the peptide KP (2×10^−6M) 3 hours and 2.5 hours before reinjection into naive mice with the same genetic background. 2 hours before reinjection, the cells were treated with hapten (1 mM DNBS, the water-soluble form of DNFB). Immediately before the reinjection, the cells were washed 2× with PBS. […] were injected i.v. into each animal. Control cells were treated either with DNBS alone or with αMSH alone or were left untreated. 5 days after injection, the animals were contacted with DNFB on the ear, and the ear thickness was measured the next day. 2 weeks later, the animals were resensitized with DNFB and again recontacted on the ear 5 days later. Finally, the auricular swelling was measured.

Balb/C mice = assay: CHS sensitization and tolerance after i.v. injection of αMSH or peptides (DNFB); conditions: for inhibition of CHS response to DNFB exposure 7 days after sensitization (auricular swelling): i.v. 2 hours before sensitization, 5 μg αMSH or 1.5 μg peptide (KP: 50 μg) per mouse; for auricular swelling response after second sensitization and hapten exposure (tolerance to DNFB): injected i.v. before the first sensitization only
Experimental: 7 to 10 week old female Balb/C mice were obtained from Charles River (Sulzfeld, Germany) and kept in compliance with government regulations.
Before the injection, the particular compound was dissolved in PBS, 0.1% mouse serum, and stored on ice until injected i.v. into the tail vein of the mice.
The mice were sensitized by spreading 75 μl of 0.5% DNFB in acetone/olive oil (4:1) on the shaven abdomen of naive mice. CHS was induced by applying 10 μl of 0.3% DNFB to the ears of the mice on both sides of one ear. CHS was determined by the degree of auricular swelling of the hapten-exposed ear compared with the other, control-treated ear and was measured using spring-loaded dividers 24 hours after hapten exposure. Mice whose ears were exposed to hapten without previous sensitization served as negative controls.

human PBMC = assay: IL-10 secretion by human PBMC (ELISA); type: cell-based; conditions: for IL-10 production: 24 hours, αMSH 10^−11 M, KPV and KPT 10^−8 to 10^−9M; for production of IL-10: 48 hours
Experimental: Mononuclear cells (PBMC) were separated from human buffy coats by Ficoll Hypaque density gradient centrifugation. Cells (1×10^6 per ml), cultivated in RPMI 1640 with antibiotics and 10% FCS, were either not treated or stimulated with αMSH or the peptides KPV or KPT with or without IL-1β (10 U/ml). The supernatants of the PBMC cultures were collected after incubation for 24 or 48 hours and stored at −20° C. until used further. A commercially available ELISA was employed to detect IL-10.

CD4+-T-cells = assay: CD4+ T-cells after contact with peptide-treated DC in vitro; type: cell-based
[3] = biological target: T1, melanocortin receptor on THP-1 cells (MC-1) (Homo sapiens, UniProt Q01726); assay: Competition with biotin-labeled αMSH for binding sites on THP-1 cells (FACS); conditions: unlabeled competitor 10^−6 M; biotin-labeled αMSH 10^−10 M
T1 construct: endogenous in cells; host or cells: THP-1 monocytic cell line (unstimulated, whole cells)
T1 sequence (Q01726 whole entry): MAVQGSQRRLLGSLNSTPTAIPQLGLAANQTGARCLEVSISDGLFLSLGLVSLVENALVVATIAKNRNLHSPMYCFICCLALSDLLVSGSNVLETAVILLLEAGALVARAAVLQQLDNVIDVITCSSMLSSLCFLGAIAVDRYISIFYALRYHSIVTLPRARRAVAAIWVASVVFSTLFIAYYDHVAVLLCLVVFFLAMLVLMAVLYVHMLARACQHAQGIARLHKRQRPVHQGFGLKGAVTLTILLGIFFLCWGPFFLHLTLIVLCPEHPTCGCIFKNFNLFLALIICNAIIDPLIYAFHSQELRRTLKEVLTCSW
Experimental: All the steps were carried out at 0 to 4° C. The monocytic cell line THP-1 was washed once in PBS, once one acidic glycine buffer (50 mM glycine, 100 mM sodium chloride, pH 3) and three times with RPMI. The cells 2.5×10^6 per ml) were then resuspended in 100 μl of RPMI/1% BSA and transferred into 96-well microtiter plates. […] After a last washing step, the cells were resuspended in PBS. […] Dead cells were excluded by adding propidium iodide shortly before the FACS analysis.

[4] = test system: sensitised recipient mice (Hapten: DNFB); assay: Reinjection of CD4+ T-cells contacted with peptide-treated DC into DNFB-sensitised mice; type: in vivo; conditions: 1×10^6 cells
HDMEC = assay: Lymphocyte adhesion assay (51Cr-labeled lymphocytes on endothelial cell layers); type: cell-based, human; conditions: molt4 T lymphocytes, JY B lymphocytes
Experimental: (§1) Human dermal microvascular endothelial cells (HDMEC) and the cell line HMEC-1 (human microvascular endothelial cell line 1) were treated either with TNFα or LPS in the presence or absence of one of the peptides. The cells were harvested for RNA isolation after 3 and after 6 hours after treatment or harvested either for adhesion molecule ETA or FACS analysis 3, 6, 16 or 24 hours after treatment. RNA underwent reverse transcription, and samples were subjected to a PCR for E selectin, ICAM-1, VCAM or for β-actin as housekeeping gene in order to carry out a semiquantitative determination. For the lymphocyte adhesion assay, the endothelial cells were seeded in dishes and incubated with ^51Cr-labeled lymphocytes. After a washing step, the amount of remaining lymphocytes bound to the EC layer was determined by measuring the radioactivity in the samples.

[5] = test system: PBMC from the blood of psoriasis patients; assay: Regulatory T cells in PBMC from blood of psoriasis patients; type: cell-based, human
LPS-treated mice = assay: LPS-induced localized vasculitis in mice (E selectin, petechial lesions); type: in vivo; conditions: αMSH 25 μg at the time of the preparatory LPS injection
Experimental: Mice were treated with LPS by s.c. injection on one ear. This preparatory injection induces a long-lasting rise in E selectin expression at the site of the LPS injection. 24 hours later, a second LPS dose was injected i.p. (challenge). This second LPS injection leads to rapid vessel necrolysis and to the formation of petechial lesions which are easily measurable because of their size and number. αMSH (25 μg) was administered at the time of the preparatory LPS injection.

T cells / DC = assay: T cells contacted in vitro with antigen-loaded, αMSH or derivative-treated DC; type: in vivo, mouse; conditions: FIG. 15
[6] = test system: mice with Imiquimod-induced psoriasis-like skin inflammation; assay: Imiquimod-induced psoriasis-like disease in mice; type: in vivo
[7] = test system: E selectin, ICAM-1, VCAM in HDMEC and HMEC-1; assay: Expression of adhesion molecules in LPS- or TNFα-treated endothelial cells (RT-PCR, EIA, FACS); type: cell-based, human; conditions: 10^−6 to 10^−12 M
Experimental: as §1

weight loss as compared to treatment with betamethasone [1] | Molecule | immune response at second challenge after resensitization (tolerance) [2] | CHS reaction at first challenge in recipients of hapten- and peptide-treated BMDC [2] | inhibition of CHS response to DNFB exposure 7 days after sensitization (auricular swelling) (Balb/C mice) | auricular swelling response after second sensitization and hapten exposure (tolerance to DNFB) (Balb/C mice) | IL-10 production (human PBMC) | production of IL-10 (human PBMC) | effect of co-cultured CD4+ T-cells on proliferation of CD4+CD25− responder T-cells (CD4+-T-cells) | suppression of biotin-labeled αMSH binding [3] | effect of reinjected CD4+ T-cells on contact allergy [4] | binding of T and B cells to LPS- or TNF-αMSH-treated EC layers (HDMEC) | expression of Foxp3 and IL-10 in regulatory T cells [5] | expression of IFN-γ in regulatory T cells [5] | number and size of petechial lesions after challenge injection of LPS (LPS-treated mice) | induction of tolerance by T cells contacted in vitro with antigen-loaded, treated DC (T cells / DC) | number of regulatory CD4+CD25+Foxp3+ T cells ([6]; flow cytometry) | expression of regulatory T cells markers ([6]; qRT-PCR) | expression of Th17 markers ([6]; quantitative RT-PCR) | inhibition of LPS- or TNFα-induced expression of adhesion molecules (mRNA) [7]
does not result in weight loss | C[C@@H](O)[C@H](NC(=O)[C@H]1CCCN1C(=O)[C@@H](N)CCCCN)C(=O)O [KdPT, (L)Lys-(D)Pro-(L)Thr] (H-Lys-[dP]-Thr-OH) | – | – | – | – | – | – | – | – | – | – | – | – | – | – | – | – | – | –
– | Lys-Pro [KP] | can induce tolerance | suppressed | inhibits | inhibited the auricular swelling response very greatly | – | – | – | – | – | – | – | – | – | – | – | – | – | –
– | Lys-Pro-Val [KPV] | – | – | inhibits | weak effect | evidently induced IL-10 production | significantly increased | suppressive effect on the proliferation | significant inhibition | suppressive effect on contact allergy | – | – | – | – | – | – | – | – | –
– | α-melanocyte-stimulating hormone [αMSH] | no immune response | suppressed | inhibits | inhibited the auricular swelling response very greatly | evidently induced IL-10 production | significantly increased | suppressive effect on the proliferation | – | suppressive effect on contact allergy | significantly reduces | upregulated | downregulated substantially | significantly reduces | induction of tolerance | increased numbers | increased expression | Reduced Expression | inhibited

— US10046020B2, “Inflammation inhibiting compounds” (priority 2001, dated 2018)
